Test results from patent publication US20130177904A1, “ARNT ISOFORM 3 AS A PREDICTOR OF AMINOFLAVONE RESPONSIVENESS IN CANCER CELLS” (UNIVERSITY OF MARYLAND, BALTIMORE, priority 2010, published 2013).

Columns and labels:
[1] = test system: PS2 and Cyp1A1 promoters in T47D; assay: Chromatin Immunoprecipitation (ChIP), AhR and ER crosstalk; type: cell-based, Human; conditions: 4 or 8 hours post-treatment with AF, FIG. 3
Text: (§1) Considering that the AhR and ER are both nuclear receptors and act as transcription factors, modulation of ER action after AhR activation by AF (“crosstalk”) was theorized to contribute to overall AF effects in ER+ cell lines. Therefore, Chromatin Immunoprecipitation (ChIP) was employed to study the potential crosstalk of AhR and ER after AF action at the PS2 promoter, a classical ER/estradiol inducible gene, and on Cyp1A1, a classical AF/AhR inducible gene known to be induced by AF. Transcription components studied were the AhR, ER, ARNT (the AhR transcriptional partner), RNA Polymerase II and CBP. CBP is a histone acetyl transferase associated with productive AhR induction of gene expression (Hestermann, E. V. and M. Brown, Mol Cell Biol, 23(21):7920-5 (2003)). In both T47D and MCF7 ER+ cell lines, all transcription components tested were present on the Estradiol inducible PS2 gene promotor, including the AhR. On the Cyp1A1 promotor, all the apparatus excluding CBP was present.
(§2) ChIP analysis was performed employing the Chromatin Immunoprecipitation (ChIP) Assay Kit (Millipore) as per company recommendations. […]
(§3) The resultant DNA was analyzed by PCR employing GoTaq Green Master Mix (Promega) using the following protocol: 94° C. for 2 minutes for initial melting, followed by 35 cycles at 94° C. for 30 seconds, 55° C. for 40 seconds, 72° C. […]

[2] = test system: PS2 and Cyp1A1 promoters in MCF7; assay: as above; type: cell-based, Human; conditions: MCF7, 4 or 8 hours post-treatment with AF, FIG. 3
Text: as §1, §2, §3

BT-549 = BT-549 breast cancer cell line, as determined by the NIH study; cited from earlier work
K562 = K562 leukemia cell line, NIH dose response data; cited from earlier work
MDA-MBA-468 = assay: Cell Death Detection ELISA PLUS apoptosis assay; type: cell-based, Human; conditions: MDA-MBA-468, 48 hours post-AF treatment, 100 nM AF per legend FIG. 2A
Method: (§4) To determine the induction of apoptosis, the Cell Death Detection ELISA^PLUS Assay (Roche Cat. No. 11774425001), which determines the degree of cytoplasmic mono- and oligonucleosomes, was employed as described by the manufacturer. […] Cells were then concentrated by centrifugation at 200 g for 10 min at room temperature and the supernatant was discarded. Cells were lysed, and cytoplasmic fractions containing fragmented DNA were transferred to streptavidin-coated microtiter plates preincubated with a biotinylated monoclonal anti-histone antibody. The amount of fragmented nucleosomes bound to anti-histone antibody was evaluated by peroxidase-conjugated monoclonal antibody using ABTS (2,2-azino-di[3-ethylbenzthiazoline sulfonate-6-diammonium salt]) as a substrate, and read in a microplate reader at 405 nm. Non-treated cells were employed as controls.

MCF7 = assay: Cell Death Detection ELISA PLUS apoptosis assay; type: cell-based, Human
Method: as §4

T47D = assay: Cell Death Detection ELISA PLUS apoptosis assay; type: cell-based, Human
Method: as §4

For `Cc1c(F)c(N)c2c(=O)cc(-c3ccc(N)c(F)c3)oc2c1F` [AF, 5-amino-2-(4-amino-3-fluorophenyl)-6,8-difluoro-7-methylchromen-4-one], the “transcriptional adjustment at PS2 and Cyp1A1 promoters (ChIP)” value [1] is given as “dissociation of ER-related transcriptional control elements from the PS2 estrogenic promoter and their association with the Cyp1A1 promotor”, the “transcriptional adjustment at PS2 and Cyp1A1 promoters (ChIP)” value [2] is given as “dissociation of ER-related transcriptional control elements from the PS2 estrogenic promoter and their association with the Cyp1A1 promotor” and the AF sensitivity (BT-549) is given as “AF in-sensitive”. The AF sensitivity (K562) was “AF sensitive”, the induction of apoptosis (MDA-MBA-468) was “prominent induction of apoptosis” and the “increase (cytoplasmic nucleosomes; printed as increase in inhibition of cell proliferation)” value (MCF7; 1 μM AF, MCF7, FIG. 2A) was greater than 4.5 fold. The induction of apoptosis (MCF7; MCF7, 48 hours post-AF treatment, 100 nM AF per legend FIG. 2A) was “prominent induction of apoptosis”, the “increase (cytoplasmic nucleosomes; printed as increase in inhibition of cell proliferation)” value (T47D; 1 μM AF, FIG. 2A) was greater than 4.5 fold and the induction of apoptosis (T47D; 48 hours post-AF treatment, 100 nM AF per legend FIG. 2A) was “prominent induction of apoptosis”.
